Reference: patent US8003613B2, “Methods and compositions for inducing apoptosis” (University of Florida Research Foundation, Inc., priority 2003, dated 2011)
Like-named read-outs stand apart in the source and are kept apart here. Where no end group is shown, it is not given here.

How the values were obtained:
VEGFR-3 = conditions: no method given; cited from earlier work
[1] = system: BT474, BT20, and MCF7 breast cancer cells; assay: Displacement of FAK from focal adhesions, rounding and detachment in breast cancer cells; format: cell-based, human; conditions: peptide coupled to TAT-FITC
Protocol: (§1) Visualization and penetration of Peptide-35 into breast cancer cells was accomplished by coupling the peptide to FITC and using a TAT penetration sequence. Apoptosis was measured using the Elisa Plus cell death detection assay after cells were treated with drug for 24 hours. Apoptosis was further confirmed by the Hoechst assay.
(§2) Peptide-35 and AV3 (SEQ ID NO: 3) were coupled to a TAT sequence (YGRKKRRQRRR; SEQ ID NO: 5) to allow cellular penetration. Peptide-35 was also coupled to FITC for visualization of the peptide inside cells. Anti-FAK, anti-GST, anti-VEGFR-3, and anti-tubulin antibodies were used for immunoprecipitation and western blotting.
(§3) Cells were plated onto coverslips in six-well culture plates in medium for 24 hours and stained with anti-FAK and anti-VEGFR-3 antibodies and visualized for co-localization.

[2] = system: MCF10A normal breast cells; assay: Detachment assay, MCF10A; format: cell-based, human; conditions: 6 hours treatment
Protocol: (§4) Detached and attached cells after drug treatment for 6 hours cells were counted by hemocytometer. The percent detachment was calculated by dividing the number of detached cells by the total number of cells.

cancer cells = assay: Apoptosis in cancer cell lines; format: cell-based, human; conditions: different cancer cell lines
Protocol: as §1
(§5) Cells were treated with drug for 24 hours and then harvested. Hoechst 33342 was added and the specimens were mounted on glass coverslips. The slides were viewed under the microscope for apoptotic nuclei. The percent apoptosis was calculated by dividing the number of apoptotic cells by the total number of cells (300).

FAK-CD = molecular target: T1, FAK-CD (Homo sapiens, UniProt Q05397); assay: Phage display / phage overlay binding to FAK-CD; conditions: Western blot/phage overlay
T1 construct: made in house
Excerpt: Peptides that bind FAK were isolated by phage display techniques. Baculovirus FAK-CD was the target protein and peptides were isolated from a phage library (New England Biolabs). After three rounds of panning, recovered phages were sequenced to identify potential peptides that bind FAK. Western-blot analysis and phage overlay were used to confirm the binding of these peptides to FAK. Peptide binding partners to FAK-CD were isolated by phage display. Baculoviral FAK-CD was used as a target and was coated to a plate and peptides were isolated from a phage library containing different 12-amino acids (New England Biolabs). After three rounds of panning, recovered phages were sequenced to identify potential peptides that bind FAK. […] Pure protein (4 μg) with loading buffer was boiled for 10 min and resolved by SDS-PAGE. Proteins were transferred to polyvinylidene difluoride membrane, probed with phage-35, and detected by chemiluminescence (Perkin-Elmer Life Sciences, Inc.).

normal MCF10A cells = assay: Displacement of FAK from focal adhesions, rounding and detachment in normal breast cells; format: cell-based, human; conditions: peptide coupled to TAT-FITC
Protocol: as §1, §2, §3

[3] = system: BT474 breast cancer cells; assay: Detachment assay, BT474; format: cell-based, human; conditions: 6 hours treatment
Protocol: as §4

[4] = system: BT474 breast cancer cells; assay: Apoptosis assay, BT474; format: cell-based, human; conditions: 24 hours treatment, confirmed by Hoechst assay
Protocol: as §1, §5

[5] = system: MCF10A normal breast cells; assay: Apoptosis assay, MCF10A; format: cell-based, human
Protocol: as §1, §5

IMR neuroblastoma cells [6] = assay: Detachment assay, IMR neuroblastoma; format: cell-based; conditions: IMR neuroblastoma cells with high VEGFR-3; peptide conjugated with TAT
Protocol: as §4

IMR neuroblastoma cells [7] = assay: Apoptosis assay, IMR neuroblastoma; format: cell-based; conditions: IMR neuroblastoma cells with high VEGFR-3; peptide conjugated with TAT
Protocol: as §5

[8] = system: Mouse Fibroblast, FAK/FAK+; assay: Detachment assay, mouse fibroblasts; format: cell-based; conditions: FAK+ compared with FAK-deficient
Protocol: BT474 cells were maintained in RPMI 1640 with 10% fetal bovine serum, 10 μg/ml insulin, and 2 mM L-glutamine. Mouse embryonic fibroblasts were maintained in DMEM with 10% FBS, Amphotericin B, and NEAA. HEK293 human embryonic kidney cells were maintained in DMEM with 10% FBS, and 2 mM L-glutamine. All cells were incubated at 37° C. in 5% CO2. Detached and attached cells after drug treatment for 6 hours cells were counted by hemocytometer. The percent detachment was calculated by dividing the number of detached cells by the total number of cells.

[9] = molecular target: T2, chicken FAT, FAK C-terminal domain (Gallus gallus, UniProt Q00944); assay: NMR analysis of peptide binding to FAT domain; conditions: preliminary NMR analysis
T2 sequence (Q00944 915-1046 limits assumed): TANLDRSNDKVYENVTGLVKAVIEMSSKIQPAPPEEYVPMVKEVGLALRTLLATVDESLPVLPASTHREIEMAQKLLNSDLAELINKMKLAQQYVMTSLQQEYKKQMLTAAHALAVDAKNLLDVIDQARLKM
Protocol: Structural analysis of VEGFR-3 peptide binding to the FAT domain of FAK is performed. Structural analysis is by nuclear magnetic resonance (NMR) spectroscopy. The solvent accessible area of the FAT-domain is predominantly hydrophilic with hydrophobic patches located on the helix 1-helix 4 face and the helix 2-helix 3 face. The hydrophobic patches may be involved in paxillin binding interactions. Results from these analyses indicate that NMR approaches will be successful in delineating detailed binding interactions between the inhibitor peptide and the FAT domain.
The site of peptide binding and is determined and specificity of binding is analyzed. Different scrambled peptides are synthesized to analyze the specificity of NMR assay. Different mutant peptides are synthesized to determine specific amino-acids involved in this interaction.

T1 sequence (Q05397 693-1052 limits assumed): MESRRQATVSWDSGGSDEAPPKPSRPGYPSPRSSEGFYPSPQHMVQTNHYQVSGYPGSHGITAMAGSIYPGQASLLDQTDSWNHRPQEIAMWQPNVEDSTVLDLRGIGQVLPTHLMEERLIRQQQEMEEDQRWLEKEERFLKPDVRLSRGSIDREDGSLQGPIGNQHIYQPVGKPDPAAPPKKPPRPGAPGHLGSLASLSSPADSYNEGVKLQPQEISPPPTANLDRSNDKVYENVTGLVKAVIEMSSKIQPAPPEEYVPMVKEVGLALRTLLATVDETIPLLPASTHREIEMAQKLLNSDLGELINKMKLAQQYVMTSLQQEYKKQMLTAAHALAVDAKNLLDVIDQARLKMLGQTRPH

Compound: CC(C)(C)n1nc(-c2ccc(Cl)cc2)c2c(N)ncnc21 [PP2]
- inhibition of VEGFR-3 phosphorylation (VEGFR-3): inhibited

Compound: HPWQWTISWPQW (listed as Homo sapiens) [scrambled peptide 35, control peptide, scrambled peptide 35, reference compound]
- displacement of FAK from focal adhesions, degradation of FAK, rounding, detachment [1]: not
- detachment [2]: minimal detachment
- apoptosis (with detachment / loss of focal adhesions) in cancer cells (cancer cells): not observed

Compound: WHWQWTPWSIQP (also: TAT and FITC conjugated; listed as Homo sapiens) [Peptide-35, coupled to TAT (and FITC) for cell penetration]
- binding to FAK-CD (C-terminal part of FAK) (FAK-CD): binds to specific sequences of FAK-CD
- binding to FAK-CD (C-terminal part of FAK) (FAK-CD; listed as peptide 35): binds to the C-terminal part of FAK and FAT domain
- displacement of FAK from focal adhesions, degradation of FAK, rounding, detachment [1]: cause displacement of FAK from focal adhesions, degradation of FAK, rounding, and detachment
- displacement of FAK from focal adhesions, degradation of FAK, rounding, detachment ([1]; listed as peptide-35): caused displacement of FAK from focal adhesions
- displacement of FAK from focal adhesions, degradation of FAK, rounding, detachment (normal MCF10A cells): not in normal MCF10A cells
- displacement of FAK from focal adhesions, degradation of FAK, rounding, detachment (normal MCF10A cells; listed as peptide-35): not in normal MCF10A breast cells
- detachment [3]: caused detachment
- detachment ([3]; listed as peptide-35): higher level of detachment
- detachment [2]: not in MCF10A normal breast cells
- detachment ([2]; listed as peptide-35): minimal detachment
- apoptosis [4]: caused detachment and apoptosis
- apoptosis ([4]; listed as peptide-35): higher level of apoptosis
- apoptosis [5]: not in MCF10A normal breast cells
- apoptosis ([5]; listed as peptide 35): not observed
- apoptosis (with detachment / loss of focal adhesions) in cancer cells (cancer cells): caused loss of focal adhesions and apoptosis
- apoptosis (with detachment / loss of focal adhesions) in cancer cells (cancer cells; listed as peptide 35): induces detachment and apoptosis

Compound: WHWRPWTPCKMF (also: TAT peptide conjugated; listed as Homo sapiens) [AV3, synthesized peptide homologous to twelve amino-acids of VEGFR-3; conjugated with TAT peptide for penetration into cells]
- apoptosis [5]: not observed
- detachment (IMR neuroblastoma cells [6]): increased detachment
- apoptosis (IMR neuroblastoma cells [7]): increased detachment and apoptosis
- detachment [8]: Mouse Fibroblast, FAK/FAK+. Greater
- binding to FAT domain by NMR [9]: detected binding
- apoptosis (with detachment / loss of focal adhesions) in cancer cells (cancer cells): induces detachment and apoptosis
- apoptosis (with detachment / loss of focal adhesions) in cancer cells (cancer cells; listed as VEGFR-3 (AV-3) peptide): caused apoptosis in cancer cells similar to peptide 35
